# Data taken from US8227613B2, “Heteroaryl carboxamide derivatives” (Hoffmann-La Roche Inc., priority 2008, dated 2012).
# Target: T1, human chemokine receptor 2 isoform B (CCR2B) (Homo sapiens, UniProt P41597)
# T1 construct: host or cells: CHO-K1 (CHOK1-CCR2B-A5)
# T1 sequence (P41597 1-360 isoform P41597-2): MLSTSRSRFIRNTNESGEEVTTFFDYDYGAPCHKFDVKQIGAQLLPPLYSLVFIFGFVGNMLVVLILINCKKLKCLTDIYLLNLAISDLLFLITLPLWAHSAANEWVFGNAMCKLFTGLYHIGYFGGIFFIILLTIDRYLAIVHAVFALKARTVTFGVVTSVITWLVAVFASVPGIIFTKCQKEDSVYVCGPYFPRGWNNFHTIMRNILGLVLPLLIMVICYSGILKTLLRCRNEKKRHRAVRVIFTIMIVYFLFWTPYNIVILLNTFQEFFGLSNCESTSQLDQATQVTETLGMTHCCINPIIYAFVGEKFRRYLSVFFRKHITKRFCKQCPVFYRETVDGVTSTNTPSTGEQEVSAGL
# Test: Calcium mobilization assay (FLIPR, MCP-1 stimulated CHOK1-CCR2B-A5 cells)
# Type: cell-based
# Conditions: 20 nM MCP-1, antagonist activity, read-out: IC50 (inhibitor concentration required for 50% inhibition of specific calcium increases)
# Procedure: Calcium Mobilization Assay
# CHOK1-CCR2B-A5 cells (from Euroscreen) stably overexpressing the human chemokine receptor 2 isoform B were cultured in Nutrient Hams F12 medium supplemented with 5% FBS, 100 U/ml penicillin, 100 μg/ml streptomycin, 400 μg/ml G418 and 5 μg/ml puromycin.
# For the assay cells were grown overnight in 384-well black clear flat bottom polystyrene plates (Costar) at 37° C. at 5% CO2. After washing with DMEM, 20 mM Hepes, 2.5 mM probenecid, 0.1% BSA (DMEM assay buffer) cells were loaded with 4 μM Fluo-4 in the same DMEM assay buffer for 2 hours at 30° C. Excess dye was removed and cells were washed with DMEM assay buffer. 384-well compound plates were prepared with DMEM assay buffer/0.5% DMSO with or without various concentrations of test compounds. Usually compounds were tested for agonist and antagonist activity.
# Test compounds were added to the assay plate and agonist activity was monitored as fluorescence for 80 seconds with a FLIPR (488 nm excitation; 510-570 nm emission; Molecular Devices). After 20-30 min. of incubation at 30° C., 20 nM MCP-1 (R&D; Roche) was added and fluorescence was monitored again for 80 seconds. Increases in intracellular calcium are reported as maximum fluorescence after agonist exposure minus basal fluorescence before exposure. Antagonist activity is indicated as inhibitor concentration required for 50% inhibition of specific calcium increases.
row,SMILES,IC50 [nM]
1,"Cc1cc(-c2cccc(C(F)(F)F)c2)c(C(=O)N2CCNCC2)nc1C(=O)N1CCC(N2CCCC2)CC1 [Example 61, [5-Methyl-6-(4-pyrrolidin-1-yl-piperidine-1-carbonyl)-3-(3-trifluoromethyl-phenyl)-pyridin-2-yl]-piperazin-1-yl-methanone]",320
2,"Cc1cc(-c2cccc(C(F)(F)F)c2)c(=O)n(C)c1C(=O)N1CCC(N2CCCC2)CC1 [Example 63, 1,5-Dimethyl-6-(4-pyrrolidin-1-yl-piperidine-1-carbonyl)-3-(3-trifluoromethyl-phenyl)-1H-pyridin-2-one]",32
3,"Cc1cc(-c2cccc(C(F)(F)F)c2)c(-c2cnn(C)c2)nc1C(=O)N1CCC(N2CCCC2)CC1 [Example 50, [3-Methyl-6-(1-methyl-1H-pyrazol-4-yl)-5-(3-trifluoromethyl-phenyl)-pyridin-2-yl]-(4-pyrrolidin-1-yl-piperidin-1-yl)-methanone]",18
4,"Cc1cc(-c2cc(C(F)(F)F)ccc2F)c[n+]([O-])c1C(=O)N1CCC(N2CCCC2)CC1 [Example 67, [5-(2-Fluoro-5-trifluoromethyl-phenyl)-3-methyl-1-oxy-pyridin-2-yl]-(4-pyrrolidin-1-yl-piperidin-1-yl)-methanone]",59
5,"Cc1cc(-c2cccc(C(F)(F)F)c2)c(C(=O)O)nc1C(=O)N1CCC(N2CCCC2)CC1 [Example 47, 5-Methyl-6-(4-pyrrolidin-1-yl-piperidine-1-carbonyl)-3-(3-trifluoromethyl-phenyl)-pyridine-2-carboxylic acid]",310
6,"Cc1cc(-c2cccc(C(F)(F)F)c2)cnc1C(=O)N1CCC(N2CCCC2)CC1 [Example 1, [3-Methyl-5-(3-trifluoromethyl-phenyl)-pyridin-2-yl]-(4-pyrrolidin-1-yl-piperidin-1-yl)-methanone]",18
7,"Cc1cc(-c2cc(C(F)(F)F)ccc2Cl)cnc1C(=O)N1CCC(N2CCCC2)CC1 [Example 30, [5-(2-Chloro-5-trifluoromethyl-phenyl)-3-methyl-pyridin-2-yl]-(4-pyrrolidin-1-yl-piperidin-1-yl)-methanone]",54
8,"O=C(c1nc(Cl)c(-c2cccc(C(F)(F)F)c2)cc1Cl)N1CCC(N2CCCC2)CC1 [Example 21, [3,6-Dichloro-5-(3-trifluoromethyl-phenyl)-pyridin-2-yl]-(4-pyrrolidin-1-yl-piperidin-1-yl)-methanone]",3.2
9,"Cc1cc(-c2cccc(C(F)(F)F)c2)c(-c2cc[nH]n2)nc1C(=O)N1CCC(N2CCCC2)CC1 [Example 49, [3-Methyl-6-(1H-pyrazol-3-yl)-5-(3-trifluoromethyl-phenyl)-pyridin-2-yl]-(4-pyrrolidin-1-yl-piperidin-1-yl)-methanone]",10
10,"Cc1cc(-c2cccc(C(F)(F)F)c2)c(OCCO)nc1C(=O)N1CCC(N2CCCC2)CC1 [Example 66, [6-(2-Hydroxy-ethoxy)-3-methyl-5-(3-trifluoromethyl-phenyl)-pyridin-2-yl]-(4-pyrrolidin-1-yl-piperidin-1-yl)-methanone]",200
11,"Cc1cc(-c2cccc(C(F)(F)F)c2F)cnc1C(=O)N1CCC(N2CCCC2)CC1 [Example 36, [5-(2-Fluoro-3-trifluoromethyl-phenyl)-3-methyl-pyridin-2-yl]-(4-pyrrolidin-1-yl-piperidin-1-yl)-methanone]",180
12,"Cc1cc(-c2cccc(C(F)(F)F)c2)c(-n2cncn2)nc1C(=O)N1CCC(N2CCCC2)CC1 [Example 25, [3-Methyl-6-[1,2,4]triazol-1-yl-5-(3-trifluoromethyl-phenyl)-pyridin-2-yl]-(4-pyrrolidin-1-yl-piperidin-1-yl)-methanone]",2.3

# Continued by falling IC50, values first:
row,IC50 [nM],SMILES
1,560,"COc1ccc(-c2cnc(C(=O)N3CCC(N4CCCC4)CC3)c(C)c2)cc1C(F)(F)F [Example 35, [5-(4-Methoxy-3-trifluoromethyl-phenyl)-3-methyl-pyridin-2-yl]-(4-pyrrolidin-1-yl-piperidin-1-yl)-methanone]"
2,290,"Cc1cc(-c2cccc(C(F)(F)F)c2)c(C(=O)NC2CCNCC2)nc1C(=O)N1CCC(N2CCCC2)CC1 [Example 60, 5-Methyl-6-(4-pyrrolidin-1-yl-piperidine-1-carbonyl)-3-(3-trifluoromethyl-phenyl)-pyridine-2-carboxylic acid piperidin-4-ylamide]"
3,78,"CC(=O)N(C(C)=O)c1nc(C(=O)N2CCC(N3CCCC3)CC2)c(C)cc1-c1cccc(C(F)(F)F)c1 [Example 10, N-Acetyl-N-[5-methyl-6-(4-pyrrolidin-1-yl-piperidine-1-carbonyl)-3-(3-trifluoromethyl-phenyl)-pyridin-2-yl]-acetamide]"
4,64,"Cc1cc(-c2cccc(C(F)(F)F)c2)nc(N)c1C(=O)N1CCC(N2CCCC2)CC1 [Example 19, [2-Amino-4-methyl-6-(3-trifluoromethyl-phenyl)-pyridin-3-yl]-(4-pyrrolidin-1-yl-piperidin-1-yl)-methanone]"
5,58,"Cc1cc(-c2cccc(C(F)(F)F)c2)n(C)c(=O)c1C(=O)N1CCC(N2CCCC2)CC1 [Example 13, 1,4-Dimethyl-3-(4-pyrrolidin-1-yl-piperidine-1-carbonyl)-6-(3-trifluoromethyl-phenyl)-1H-pyridin-2-one]"
6,26,"Cc1cc(-c2cccc(C(F)(F)F)c2)c(C#N)nc1C(=O)N1CCC(N2CCCC2)CC1 [Example 42, 5-Methyl-6-(4-pyrrolidin-1-yl-piperidine-1-carbonyl)-3-(3-trifluoromethyl-phenyl)-pyridine-2-carbonitrile]"
7,25,"Cc1cc(-c2cccc(C(F)(F)F)c2)c(C(N)=O)nc1C(=O)N1CCC(N2CCCC2)CC1 [Example 43, 5-Methyl-6-(4-pyrrolidin-1-yl-piperidine-1-carbonyl)-3-(3-trifluoromethyl-phenyl)-pyridine-2-carboxylic acid amide]"
8,25,"Cc1cc(-c2cc(C(F)(F)F)ccc2F)cnc1C(=O)N1CCC(N2CCCC2)CC1 [Example 31, [5-(2-Fluoro-5-trifluoromethyl-phenyl)-3-methyl-pyridin-2-yl]-(4-pyrrolidin-1-yl-piperidin-1-yl)-methanone]"
9,23,"Cc1cc(-c2cccc(C(F)(F)F)c2)c(-c2cnn[nH]2)nc1C(=O)N1CCC(N2CCCC2)CC1 [Example 32, [3-Methyl-6-(1H-[1,2,3]triazol-4-yl)-5-(3-trifluoromethyl-phenyl)-pyridin-2-yl]-(4-pyrrolidin-1-yl-piperidin-1-yl)-methanone]"
10,18,"COc1nc(C(=O)N2CCC(N3CCCC3)CC2)c(Cl)cc1-c1cccc(C(F)(F)F)c1 [Example 22, [3-Chloro-6-methoxy-5-(3-trifluoromethyl-phenyl)-pyridin-2-yl]-(4-pyrrolidin-1-yl-piperidin-1-yl)-methanone]"
11,16,"Cc1cc(-c2cccc(C(F)(F)F)c2)c(N)nc1C(=O)N1CCC(N2CCCC2)CC1 [Example 7, [6-Amino-3-methyl-5-(3-trifluoromethyl-phenyl)-pyridin-2-yl]-(4-pyrrolidin-1-yl-piperidin-1-yl)-methanone]"
12,13,"Cc1cc(-c2cccc(C(F)(F)F)c2)c(C(=O)Nc2cccnc2)nc1C(=O)N1CCC(N2CCCC2)CC1 [Example 56, 5-Methyl-6-(4-pyrrolidin-1-yl-piperidine-1-carbonyl)-3-(3-trifluoromethyl-phenyl)-pyridine-2-carboxylic acid pyridin-3-ylamide]"
13,12,"O=C(c1ncc(-c2cccc(C(F)(F)F)c2)cc1Cl)N1CCC(N2CCCC2)CC1 [Example 14, [3-Chloro-5-(3-trifluoromethyl-phenyl)-pyridin-2-yl]-(4-pyrrolidin-1-yl-piperidin-1-yl)-methanone]"
14,7.6,"Cc1cc(-c2cccc(C(F)(F)F)c2)c2nnnn2c1C(=O)N1CCC(N2CCCC2)CC1 [Example 65, [6-Methyl-8-(3-trifluoromethyl-phenyl)-tetrazolo[1,5-a]pyridin-5-yl]-(4-pyrrolidin-1-yl-piperidin-1-yl)-methanone]"
15,7.5,"COC(=O)c1nc(C(=O)N2CCC(N3CCCC3)CC2)c(C)cc1-c1cccc(C(F)(F)F)c1 [Example 45, 5-Methyl-6-(4-pyrrolidin-1-yl-piperidine-1-carbonyl)-3-(3-trifluoromethyl-phenyl)-pyridine-2-carboxylic acid methyl ester]"
16,4,"Cc1cc(-c2cccc(C(F)(F)F)c2)c(-n2cnc(Cl)n2)nc1C(=O)N1CCC(N2CCCC2)CC1 [Example 20, [6-(3-Chloro-[1,2,4]triazol-1-yl)-3-methyl-5-(3-trifluoromethyl-phenyl)-pyridin-2-yl]-(4-pyrrolidin-1-yl-piperidin-1-yl)-methanone]"
